Data on 21 compounds can be found in US9315490B2, “2,5-substituted pyrimidines” (Grünenthal GmbH, priority 2014, dated 2016).

Molecules are shown by their SMILES.

In the first data set the target is T1, human PDE4B1 (Homo sapiens, UniProt Q07343).
T1 construct: host or cells: Sf9 cells
T1 sequence (Q07343 whole entry): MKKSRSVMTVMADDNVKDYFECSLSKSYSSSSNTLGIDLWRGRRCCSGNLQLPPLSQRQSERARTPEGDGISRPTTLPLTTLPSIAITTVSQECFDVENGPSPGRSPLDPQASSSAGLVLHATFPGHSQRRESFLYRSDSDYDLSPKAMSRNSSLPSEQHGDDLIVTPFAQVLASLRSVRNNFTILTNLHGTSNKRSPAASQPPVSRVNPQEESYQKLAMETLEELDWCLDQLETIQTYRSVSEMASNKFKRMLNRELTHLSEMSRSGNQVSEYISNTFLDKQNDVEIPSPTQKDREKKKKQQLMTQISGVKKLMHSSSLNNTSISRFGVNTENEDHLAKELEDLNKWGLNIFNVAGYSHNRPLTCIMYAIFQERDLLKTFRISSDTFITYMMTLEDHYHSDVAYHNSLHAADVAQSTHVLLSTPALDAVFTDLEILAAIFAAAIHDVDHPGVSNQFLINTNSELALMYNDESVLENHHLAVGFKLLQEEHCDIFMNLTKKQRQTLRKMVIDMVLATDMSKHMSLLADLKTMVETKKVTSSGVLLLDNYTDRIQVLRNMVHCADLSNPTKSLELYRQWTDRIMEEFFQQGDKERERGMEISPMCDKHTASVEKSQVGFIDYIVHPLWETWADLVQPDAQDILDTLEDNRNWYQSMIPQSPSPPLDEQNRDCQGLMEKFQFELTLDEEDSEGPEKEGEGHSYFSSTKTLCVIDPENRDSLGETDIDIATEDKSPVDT
The experiment in a line: TR-FRET assay using the LANCE Ultra cAMP kit to determine the activity of hPDE4B1. The following applies: test concentration 1 μM, read-out: Inhibition in % (inhibition of PDE4B). Format: biochemical. The procedure, abridged: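 Sf9-expressed recombinant human PDE4B1 (0.96 U) hydrolyses 500 nM cAMP for 30 minutes at room temperature in 50 mM Tris-HCl, 50 mM MgCl2, 5 mM DTT, pH 8.5. The reaction is stopped with IBMX, and residual cAMP is measured by TR-FRET (665/620 ratio). IC50 comes from ten concentrations.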
In general, inhibition refers to the drop in the measured response relative to a control, in per cent. Take `CC(C)c1ccnc(-c2cnc(-n3cc(S(C)(=O)=O)c4ccc(C(=O)N5CCOCC5)cc43)nc2)c1` [Example 324, (1-(5-(4-Isopropylpyridin-2-yl)pyrimidin-2-yl)-3-(methylsulfonyl)-1H-indol-6-yl)(morpholino)methanone]: the inhibition at 1 µM is 76%.

Regarding `CCOc1ccc(F)c(-c2cnc(-n3cc(S(C)(=O)=O)c4ccc(C(=O)N5CCOCC5)cc43)nc2)c1` [Example 326, (1-(5-(5-Ethoxy-2-fluorophenyl)pyrimidin-2-yl)-3-(methylsulfonyl)-1H-indol-6-yl)(morpholino)methanone], the inhibition at 1 µM was found to be 98%.

Turning to `Cc1ccc(F)c(-c2cnc(-n3cc(S(C)(=O)=O)c4ccc(C(=O)N5CCOCC5)cc43)nc2)c1` [Example 350, (1-(5-(2-Fluoro-5-methylphenyl)pyrimidin-2-yl)-3-(methylsulfonyl)-1H-indol-6-yl)(morpholino)methanone], the inhibition at 1 µM amounted to 93%.

For the compound `Cc1ccnc(-c2cnc(-n3cc(S(C)(=O)=O)c4ccc(C(=O)N5CCOCC5)cc43)nc2)c1` [Example 353, (1-(5-(4-Methylpyridin-2-yl)pyrimidin-2-yl)-3-(methylsulfonyl)-1H-indol-6-yl)(morpholino)methanone], the inhibition at 1 µM was found to be 54%.

Still in this data set, the particulars now being: test concentration 10 μM (marked in cell), read-out: Inhibition in % (inhibition of PDE4B).
`Cc1ccc(F)c(-c2cnc(-n3cc(C(C)O)c4ccc(C(=O)N5CC[C@@H](N)C5)cc43)nc2)c1` (stereo partly drawn) [Example 321, ((R)-3-Aminopyrrolidin-1-yl)(1-(5-(2-fluoro-5-methylphenyl)pyrimidin-2-yl)-3-(1-hydroxyethyl)-1H-indol-6-yl)methanone]: the inhibition at 10 µM came out at 143%.

As for `Cc1ccc(F)c(-c2cnc(-n3cc(C(C)O)c4ccc(C(=O)N(C)C)cc43)nc2)c1` (stereo not drawn) [Example 322, 1-(5-(2-Fluoro-5-methylphenyl)pyrimidin-2-yl)-3-(1-hydroxyethyl)-N,N-dimethyl-1H-indole-6-carboxamide], the inhibition at 10 µM came to 100%.

`Cc1ccc(F)c(-c2cnc(-n3cc(C(C)O)c4ccc(C(=O)N(C)CC(N)=O)cc43)nc2)c1` (stereo not drawn) [Example 323, N-(2-Amino-2-oxoethyl)-1-(5-(2-fluoro-5-methylphenyl)pyrimidin-2-yl)-3-(1-hydroxyethyl)-N-methyl-1H-indole-6-carboxamide]: the inhibition at 10 µM came to 103%.

For the compound `CCc1ccnc(-c2cnc(-n3cc(S(C)(=O)=O)c4ccc(C(=O)N5CCOCC5)cc43)nc2)c1` [Example 325, (1-(5-(4-Ethylpyridin-2-yl)pyrimidin-2-yl)-3-(methylsulfonyl)-1H-indol-6-yl)(morpholino)methanone], the inhibition at 10 µM is 91%.

Consider `CS(=O)(=O)c1cn(-c2ncc(-c3cc(C4CC4)ccn3)cn2)c2cc(C(=O)N3CCOCC3)ccc12` [Example 327, (1-(5-(4-Cyclopropylpyridin-2-yl)pyrimidin-2-yl)-3-(methylsulfonyl)-1H-indol-6-yl)(morpholino)methanone], for which the inhibition at 10 µM turned out to be 90%.

With `Cc1ccc(F)c(-c2cnc(-n3cc(S(C)(=O)=O)c4ccc(C(=O)N(C)CC(N)=O)cc43)nc2)c1` [Example 328, N-(2-Amino-2-oxoethyl)-1-(5-(2-fluoro-5-methylphenyl)pyrimidin-2-yl)-N-methyl-3-(methylsulfonyl)-1H-indole-6-carboxamide], the inhibition at 10 µM came out at 89%.

With `CCc1ccc(F)c(-c2cnc(-n3cc(C(C)O)c4ccc(C(=O)N(C)CC(N)=O)cc43)nc2)c1` (stereo not drawn) [Example 331, N-(2-Amino-2-oxoethyl)-1-(5-(5-ethyl-2-fluorophenyl)pyrimidin-2-yl)-3-(1-hydroxyethyl)-N-methyl-1H-indole-6-carboxamide], the inhibition at 10 µM stood at 109%.

Regarding `Cc1ccnc(-c2cnc(-n3cc(C(C)O)c4ccc(C(=O)N(C)CC(N)=O)cc43)nc2)c1` (stereo not drawn) [Example 332, N-(2-Amino-2-oxoethyl)-3-(1-hydroxyethyl)-N-methyl-1-(5-(4-methylpyridin-2-yl)pyrimidin-2-yl)-1H-indole-6-carboxamide], the inhibition at 10 µM is 82%.

For `Cc1ccnc(-c2cnc(-n3cc([S+](C)[O-])c4ccc(C(=O)N5CC[C@@H](N)C5)cc43)nc2)c1` (stereo partly drawn) [Example 336, ((R)-3-Aminopyrrolidin-1-yl)(1-(5-(4-methylpyridin-2-yl)pyrimidin-2-yl)-3-(methylsulfinyl)-1H-indol-6-yl)methanone], the inhibition at 10 µM stood at 64%.

With `C[S+]([O-])c1cn(-c2ncc(-c3cc(C4CC4)ccn3)cn2)c2cc(C(=O)N3CCCC3)ccc12` (stereo not drawn) [Example 341, (1-(5-(4-Cyclopropylpyridin-2-yl)pyrimidin-2-yl)-3-(methylsulfinyl)-1H-indol-6-yl)(pyrrolidin-1-yl)methanone], the inhibition at 10 µM was found to be 108%.

As for `COc1ccnc(-c2cnc(-n3cc([S+](C)[O-])c4ccc(C(=O)N5CCCC5)cc43)nc2)c1` (stereo not drawn) [Example 342, (1-(5-(4-Methoxypyridin-2-yl)pyrimidin-2-yl)-3-(methylsulfinyl)-1H-indol-6-yl)(pyrrolidin-1-yl)methanone], the inhibition at 10 µM is 113%.

As to `CCOc1ccnc(-c2cnc(-n3cc([S+](C)[O-])c4ccc(C(=O)N5CCCC5)cc43)nc2)c1` (stereo not drawn) [Example 343, (1-(5-(4-Ethoxypyridin-2-yl)pyrimidin-2-yl)-3-(methylsulfinyl)-1H-indol-6-yl)(pyrrolidin-1-yl)methanone], the inhibition at 10 µM is 100%.

As for `CS(=O)(=O)c1cn(-c2ncc(-c3ccccc3F)cn2)c2cc(C(=O)N3C[C@H]4C[C@@H]3CO4)ccc12` [Example 349, (1R,4R)-2-Oxa-5-azabicyclo[2.2.1]heptan-5-yl(1-(5-(2-fluorophenyl)pyrimidin-2-yl)-3-(methylsulfonyl)-1H-indol-6-yl)methanone], the inhibition at 10 µM came out at 92%.

System in the next data set: not given
Assay: not given
Details: not given
For orientation: melting point means the temperature of the solid-liquid transition. `C[S+]([O-])c1cn(-c2ncc(-c3ccccc3C#N)cn2)c2cc(C(=O)N3CCNCC3)ccc12` (stereo not drawn) [Example 16, 2-(2-(3-(Methylsulfinyl)-6-(piperazine-1-carbonyl)-1H-indol-1-yl)pyrimidin-5-yl)benzonitrile]: the melting point lay in the range of 230 to 235 °C.

In turn, `CS(=O)(=O)c1cn(-c2ncc(-c3ccc(F)cc3F)cn2)c2cc(C(=O)N3CCNCC3)ccc12` [Example 23, (1-(5-(2,4-Difluorophenyl)pyrimidin-2-yl)-3-(methylsulfonyl)-1H-indol-6-yl)(piperazin-1-yl)methanone] displayed a melting point of 229 to 233 °C.

As for `CS(=O)(=O)c1cn(-c2ncc(-c3ccccc3C#N)cn2)c2cc(C(=O)N3CCNCC3)ccc12` [Example 25, 2-(2-(3-(Methylsulfonyl)-6-(piperazine-1-carbonyl)-1H-indol-1-yl)pyrimidin-5-yl)benzonitrile], the melting point fell in the range of 193 to 197 °C.

Take `C[S+]([O-])c1cn(-c2ncc(-c3ncc(C#N)s3)cn2)c2cc(C(=O)N3CCOCC3)ccc12` (stereo not drawn) [Example 207, 2-(2-(3-(Methylsulfinyl)-6-(morpholine-4-carbonyl)-1H-indol-1-yl)pyrimidin-5-yl)thiazole-5-carbonitrile]: the melting point is 280 to 283 °C.
